{
  "source": "patent US20240315994A1",
  "about": "“SMALL MOLECULE MODULATORS OF FERROPTOSIS” (ARPEGGIO BIOSCIENCES, INC., priority 2021, published 2024)",
  "data": [
    {"test_system": "HT-1080 fibrosarcoma cells", "assay": "HT-1080 single-concentration cell viability screen (Cell Titer Glo)", "type": "cell-based", "settings": "10 μM compound, 48 hours, duplicate, fraction of control", "text": "To identify potential covalent inhibitors of GPX4, we screened a panel of 294 diverse small molecules from the Enamine covalent inhibitor library (Catalog No. CSL-10480-0-Z-10, Enamine, Monmouth, NJ). Each compound contains either a chloroacetamide or acrylamide moiety theoretically capable of forming a covalent bond with a selenocysteine. The small molecule compounds were selected for a diversity of backbone structures. The screening protocol used the cell viability assay Cell Titer Glo® (available from Promega, Madison, WI). Cell Titer Glo® is a luminescent cell viability that determines the number of viable cells in culture by quantifying ATP, which indicates the presence of metabolically active cells. Briefly, HT-1080 fibrosarcoma cells were plated 24 hours prior to treatment with 10 µM of each compound in the screening panel. Cell Titer Glo® was used to read out cell viability after 48 hours of compound exposure. Data was collected in duplicate.\nTo determine whether similar molecules could offer other starting points for a medicinal chemistry campaign, we screened 95 additional compounds that contain a similar base structure to that of 8216. Briefly, HT-1080 fibrosarcoma cells were treated with 10 µM of a compound for 48 hours and cell viability was measured by Cell Titer Glo®. Data was collected in duplicate. […]", "values": [
      {"smiles": "CCN1CCCC(CN(C)C(=O)CCl)C1c1cnn(C)c1", "note": "(stereo not shown) [Compound Z3766270794]", "Average relative cell viability": 0.003474},
      {"smiles": "O=C(CCl)N(Cc1ccccc1)c1nc(-c2ccc(Cl)cc2)cs1", "note": "[Compound Z56837054]", "Average relative cell viability": 0.001992},
      {"smiles": "O=C(CCl)N(Cc1ccccc1)c1ccccc1", "note": "[Compound Z199424090]", "Average relative cell viability": 0.00039},
      {"smiles": "O=C(CCl)N(Cc1noc2c1CCCC2)c1ccccc1F", "note": "[Compound Z4323314193]", "Average relative cell viability": 0.00483},
      {"smiles": "O=C(CCl)N(Cc1cnn(C2CCCCC2)c1)CC1(c2ccccc2)CC1", "note": "[Compound Z4425211258]", "Average relative cell viability": 0.001938},
      {"smiles": "O=C(CCl)N(Cc1ccccc1)c1nc(-c2ccc(F)cc2)cs1", "note": "[Compound Z56946047]", "Average relative cell viability": 0.000624},
      {"smiles": "Cc1nn(C)c(C)c1CN(C(=O)CCl)C1CCCCC1C", "note": "(stereo not shown) [Compound Z4323324870]", "Average relative cell viability": 0.488},
      {"smiles": "Cc1cc(CN(C(=O)CCl)c2ccc(F)cc2)nn1C", "note": "[Compound Z3837055210]", "Average relative cell viability": 0.001584},
      {"smiles": "Cc1cccc(N(Cc2ccccc2)C(=O)CCl)c1", "note": "[Compound Z57052885]", "Average relative cell viability": 0.002244},
      {"smiles": "O=C(CCl)N(CCc1ccc(F)cc1)Cc1cnc(C2CCOCC2)o1", "note": "[Compound Z4425211012]", "Average relative cell viability": 0.0748},
      {"smiles": "O=C(CCN(Cc1ccc2c(c1)CCOC2)C(=O)CCl)NC1CCCC1", "note": "[Compound Z4425210882]", "Average relative cell viability": 0.1465},
      {"smiles": "O=C(CCl)N(Cc1cccs1)CC1CCCO1", "note": "(stereo not shown) [Compound Z147647920]", "Average relative cell viability": 0.04392},
      {"smiles": "Cc1csc(CN(C(=O)CCl)c2cccc(F)c2C)n1", "note": "[Compound Z3837197646]", "Average relative cell viability": 0.01316},
      {"smiles": "COc1ccc(CN(C(=O)CCl)C2CCOC(C)C2)cc1C", "note": "(stereo not shown) [Compound Z4323373087]", "Average relative cell viability": 0.0167},
      {"smiles": "COC1CCC(N(Cc2cc(C)oc2C)C(=O)CCl)CC1", "note": "(stereo not shown) [Compound Z4323386801]", "Average relative cell viability": 0.01527},
      {"smiles": "O=C(CCl)N(Cc1ccccc1O)Cc1ccccc1O", "note": "[Compound Z3952174992]", "Average relative cell viability": 0.1517},
      {"smiles": "O=C(CCl)N(Cc1ccc2c(c1)CCC2)CC1(CCO)CC1", "note": "[Compound Z4323486432]", "Average relative cell viability": 0.004428},
      {"smiles": "COc1cccc(CN(CC2CCCO2)C(=O)CCl)c1F", "note": "(stereo not shown) [Compound Z3837050450]", "Average relative cell viability": 0.5148},
      {"smiles": "C=CCN1CCC(N(Cc2ccc(CC)o2)C(=O)CCl)CC1", "note": "[Compound Z4323341765]", "Average relative cell viability": 0.7008},
      {"smiles": "Cn1cc(CN(C(=O)CCl)c2ccc(F)cc2)cn1", "note": "[Compound Z3766264621]", "Average relative cell viability": 0.02152},
      {"smiles": "O=C(CCl)N(Cc1ccccc1)Cc1ccco1", "note": "[Compound Z108565162]", "Average relative cell viability": 0.005394},
      {"smiles": "O=C(CCl)N(Cc1ccccc1)CC1(O)CCOC1", "note": "(stereo not shown) [Compound Z1687602192]", "Average relative cell viability": 0.1445},
      {"smiles": "Cn1nnc(CN(C(=O)CCl)C2CCCCCCC2)n1", "note": "[Compound Z4323320274]", "Average relative cell viability": 0.002922},
      {"smiles": "O=C(CCl)N(Cc1ccccc1)c1nc(-c2ccc(Br)cc2)cs1", "note": "[Compound Z56926666]", "Average relative cell viability": 0.008622},
      {"smiles": "O=C(CCl)N(Cc1nc2ccsc2c(=O)[nH]1)C1CC1", "note": "[Compound Z3217399415]", "Average relative cell viability": 1.255},
      {"smiles": "CN(Cc1cnc(N(C)C)nc1)C(=O)CCl", "note": "[Compound Z2596884436]", "Average relative cell viability": 0.4026},
      {"smiles": "Cl.O=C(CCl)N(Cc1cn2ccccc2n1)C1CC1", "note": "[Compound Z4283095766]", "Average relative cell viability": 0.9342},
      {"smiles": "O=C(CCl)N(Cc1ccc(F)cc1)c1nc(-c2ccccc2)cs1", "note": "[Compound Z147647938]", "Average relative cell viability": 0.000936},
      {"smiles": "COc1ccc(CN(CC2CC(C)=NO2)C(=O)CCl)cc1", "note": "(stereo not shown) [Compound Z3837506617]", "Average relative cell viability": 0.3267},
      {"smiles": "O=C(CCl)N(Cc1ccns1)c1ccc2c(c1)OCCO2", "note": "[Compound Z3837046637]", "Average relative cell viability": 0.00972},
      {"smiles": "COc1ccc2nc(CN(Cc3ccc(F)cc3)C(=O)CCl)sc2c1", "note": "[Compound Z4425210755]", "Average relative cell viability": 0.002562},
      {"smiles": "COC1(CN(Cc2ccn(C)n2)C(=O)CCl)CCCCC1", "note": "[Compound Z3837644318]", "Average relative cell viability": 0.7407},
      {"smiles": "O=C(CCl)N(Cc1ccccc1)c1nc2c(s1)CCCC2", "note": "[Compound Z147647668]", "Average relative cell viability": 0.005838},
      {"smiles": "O=C(CCl)N(Cc1cccc2ccoc12)C1CCCOCC1", "note": "(stereo not shown) [Compound Z4323385212]", "Average relative cell viability": 0.003768},
      {"smiles": "O=C(CCl)N(Cc1ccc(Cn2cccn2)cc1)CC1CC1", "note": "[Compound Z3837267295]", "Average relative cell viability": 0.002112},
      {"smiles": "Cc1ccc2sc(N(Cc3ccccc3)C(=O)CCl)nc2c1C", "note": "[Compound Z147647684]", "Average relative cell viability": 0.006576},
      {"smiles": "CC1(C)CC(N(Cc2ccccc2)C(=O)CCl)C(C)(C)O1", "note": "(stereo not shown) [Compound Z3766271747]", "Average relative cell viability": 0.005616},
      {"smiles": "Cc1cc(F)ccc1N(Cc1ccnn1C(C)C)C(=O)CCl", "note": "[Compound Z3837096793]", "Average relative cell viability": 0.1701},
      {"smiles": "O=C(CCl)N(Cc1cccs1)C1Cc2ccccc2C1", "note": "[Compound Z3766262414]", "Average relative cell viability": 0.5481},
      {"smiles": "N#Cc1ccc(CN(C(=O)CCl)C2CC2)c(F)c1", "note": "[Compound Z3952175125]", "Average relative cell viability": 0.8876},
      {"smiles": "CC#CC(=O)N(Cc1ccc(-n2cncn2)cc1)C1CC1", "note": "[Compound Z2020497058]", "Average relative cell viability": 1.089},
      {"smiles": "O=C(CCl)N(Cc1ccccc1)Cc1cc2n(n1)CCCC2", "note": "[Compound Z4323310732]", "Average relative cell viability": 0.05332},
      {"smiles": "CCn1cc(CN(C(=O)CCl)C2CC2)c(C)n1", "note": "[Compound Z3887631385]", "Average relative cell viability": 0.7938},
      {"smiles": "COc1cc(CN(C(=O)CCl)C2CCCOC2)ccc1C", "note": "(stereo not shown) [Compound Z4323349920]", "Average relative cell viability": 0.002028},
      {"smiles": "O=C(CCl)N(CC1=CCCOC1)Cc1ccccc1", "note": "[Compound Z3952175509]", "Average relative cell viability": 0.03047},
      {"smiles": "O=C(CCl)N(CCc1ccccc1)Cc1ccccc1", "note": "[Compound Z56891378]", "Average relative cell viability": 0.001872},
      {"smiles": "O=C(CCl)N(Cc1ccnn1C1CCC1)C1CC=CCC1", "note": "(stereo not shown) [Compound Z4323362848]", "Average relative cell viability": 0.001626},
      {"smiles": "COc1nc2ccc(CN(Cc3ccc(F)cc3)C(=O)CCl)cc2s1", "note": "[Compound Z4425210756]", "Average relative cell viability": 0.00393},
      {"smiles": "O=C(CCl)N(Cc1cccs1)C1CCS(=O)(=O)C1", "note": "(stereo not shown) [Compound Z90122115]", "Average relative cell viability": 0.05782},
      {"smiles": "O=C(CCl)N(Cc1ccco1)C1CCS(=O)(=O)C1", "note": "(stereo not shown) [Compound Z147652330]", "Average relative cell viability": 0.7459},
      {"smiles": "O=C(CCl)N(CC1=CCCCC1)Cc1cc(-c2ccc(Cl)cc2)on1", "note": "[Compound Z4425210932]", "Average relative cell viability": 0.001926},
      {"smiles": "CC(C)n1nccc1CN(CC1CCCC1)C(=O)CCl", "note": "[Compound Z3837300268]", "Average relative cell viability": 0.00828},
      {"smiles": "Cc1cc(CN(Cc2ccn(C)n2)C(=O)CCl)ccc1F", "note": "[Compound Z3837152585]", "Average relative cell viability": 0.007686},
      {"smiles": "Cc1ccsc1CN(C(=O)CCl)C1CCN(C(C)C)C1=O", "note": "(stereo not shown) [Compound Z4323355648]", "Average relative cell viability": 0.5691},
      {"smiles": "O=C(CCl)N(Cc1ccco1)C1=CCCCC1", "note": "[Compound Z89264994]", "Average relative cell viability": 0.01228}
    ]}
  ]
}
